# Experiments:
# Assay type in all cases: in vivo
# [1] = system: Sphaerotheca fuliginea; assay: Sphaerotheca test (cucumber)/protective; conditions: Podosphaera fuliginea, 168 h, 500 ppm active substance, protective, evaluation 7 days after inoculation, read-out: degree of effectiveness
# Procedure: • Solvent: 49 parts by weight of N,N-dimethylformamide • Emulsifier: 1 part by weight of alkylaryl polyglycol ether (polyoxyethylene (16) tristearylphenyl ether) To prepare a suitable active substance composition, 1 part by weight of active substance is mixed with the given amounts of solvents and emulsifier and the concentrate is diluted to the desired concentration using water. For the testing of protective effectiveness, young cucumber plants are sprayed with the active substance composition in the application rate given. One day after treatment, the plants are inoculated with a suspension of spores of Sphaerotheca fuliginea. The plants are then placed in a greenhouse at 70% relative humidity and a temperature of 23° C. Evaluation is carried out 7 days after the inoculation. In this connection, 0% means a degree of effectiveness corresponding to that of the control, while a degree of effectiveness of 100% means that no infestation is observed.
# [2] = system: Puccinia triticina; assay: Puccinia triticina test (wheat)/protective; conditions: 192 h, 500 ppm active substance, protective, evaluation 8 days after inoculation, read-out: degree of effectiveness
# Procedure: (§1) • Solvent: 50 parts by weight of N,N-dimethylacetamide • Emulsifier: 1 part by weight of alkylaryl polyglycol ether (polyoxyethylene (16) tristearylphenyl ether)
# (§2) To prepare a suitable active substance composition, 1 part by weight of active substance is mixed with the given amounts of solvent and emulsifier and the concentrate is diluted to the desired concentration using water.
# For the testing of protective effectiveness, young plants are sprayed with the active substance composition in the application rate given. After the spray coating has been dried on, the plants are sprayed with a suspension of spores of Puccinia triticina. The plants remain in an incubation chamber at 20° C. and 100% relative humidity for 48 hours. The plants are placed in a greenhouse at a temperature of approximately 20° C. and a relative humidity of approximately 80%.
# (§3) Evaluation is carried out 8 days after the inoculation. In this connection, 0% means a degree of effectiveness corresponding to that of the control, while a degree of effectiveness of 100% means that no infestation is observed.
# [3] = system: Puccinia triticina; assay: Puccinia triticina test (wheat)/curative; conditions: 192 h, 500 ppm active substance, curative, evaluation 8 days after inoculation, read-out: degree of effectiveness
# Procedure: as §1, §2
# For the testing of curative effectiveness, young plants are sprayed with a suspension of spores of Puccinia triticina. The plants remain in an incubation chamber at 20° C. and 100% relative humidity for 48 hours and are then sprayed with the active substance composition in the application rate given. The plants are placed in a greenhouse at a temperature of approximately 20° C. and a relative humidity of approximately 80%.
# as §3
# [4] = system: Alternaria solani; assay: Alternaria test (tomato)/protective; conditions: 72 h, 100 ppm active substance, protective, evaluation 3 days after inoculation, read-out: degree of effectiveness
# Procedure: • Solvents: 24.5 parts by weight of acetone • 24.5 parts by weight of dimethylacetamide • Emulsifier: 1 part by weight of alkylaryl polyglycol ether (polyoxyethylene (16) tristearylphenyl ether)
# To prepare a suitable active substance composition, 1 part by weight of substance is mixed with the given amounts of solvents and emulsifier and the concentrate is diluted to the desired concentration using water.
# For the testing of protective effectiveness, young plants are sprayed with the active substance composition in the application rate given. After the spray coating has been dried on, the plants are inoculated with an aqueous suspension of spores of Alternaria solani. The plants are then placed in an incubation chamber at approximately 20° C. and 100% relative humidity.
# Evaluation is carried out 3 days after the inoculation. In this connection, 0% means a degree of effectiveness corresponding to that of the control, while a degree of effectiveness of 100% means that no infestation is observed.
Compound,pest or weed control at 500 ppm [1] [%],pest or weed control at 500 ppm [2] [%],pest or weed control at 500 ppm [3] [%],pest or weed control at 100 ppm [4] [%]
"CCN(C)C=Nc1cc(C)c(Oc2nc([C@@H]3C[C@H]3c3ccccc3)ns2)cc1Cl (relative stereo) [Compound 29, rel-N′-[2-chloro-5-methyl-4-({3-[(1R,2R)-2-phenylcyclopropyl]-1,2,4-thiadiazol-5-yl}oxy)phenyl]-N-ethyl-N-methylimidoformamide]",≥ 70,≥ 70,≥ 70,
"Cc1cc(N=CN(C)C(C)C)c(Cl)cc1Oc1nc([C@@H]2C[C@H]2c2ccccc2)ns1 (relative stereo) [Compound 31, rel-N′-[2-chloro-5-methyl-4-({3-[(1R,2R)-2-phenylcyclopropyl]-1,2,4-thiadiazol-5-yl}oxy)phenyl]-N-methyl-N-(propan-2-yl)imidoformamide]",≥ 70,≥ 70,≥ 70,
"Cc1cc(N=CN(C)C(C)C)c(Cl)cc1Oc1nc(C2(Cl)CC2)ns1 [Compound 4, N′-(2-chloro-4-{[3-(1-chlorocyclopropyl)-1,2,4-thiadiazol-5-yl]oxy}-5-methylphenyl)-N-methyl-N-propan-2-ylimidoformamide]",≥ 70,≥ 70,≥ 70,
"Cc1cc(/N=C/N2CCCCC2)c(Cl)cc1Oc1nc(C2(Cl)CC2)ns1 [Compound 5, 2-chloro-4-{[3-(1-chlorocyclopropyl)-1,2,4-thiadiazol-5-yl]oxy}-5-methyl-N-[(E)-piperidin-1-ylmethylidene]aniline]",≥ 70,≥ 70,≥ 70,
"Cc1cc(/N=C/N2CCCCC2)c(Cl)cc1Oc1nc(C(C)c2ccc(Cl)cc2)ns1 (stereo not drawn) [Compound 7, 2-chloro-4-({3-[1-(4-chlorophenyl)ethyl]-1,2,4-thiadiazol-5-yl}oxy)-5-methyl-N-[(E)-piperidin-1-ylmethylidene]aniline]",≥ 70,,,
"CCN(C)/C=N/c1cc(C)c(Oc2nc(CCc3ccc(Cl)cc3)ns2)cc1Cl [Compound 9, N′-[2-chloro-4-({3-[2-(4-chlorophenyl)ethyl]-1,2,4-thiadiazol-5-yl}oxy)-5-methylphenyl]-N-ethyl-N-methylimidoformamide]",≥ 70,≥ 70,≥ 70,
"CCN(C)/C=N/c1cc(C)c(Oc2nc(C(C)(C)c3ccc(Cl)cc3)ns2)cc1Cl [Compound 11, N′-[2-chloro-4-({3-[2-(4-chlorophenyl)propan-2-yl]-1,2,4-thiadiazol-5-yl}oxy)-5-methylphenyl]-N-ethyl-N-methylimidoformamide]",≥ 70,≥ 70,≥ 70,≥ 70
"Cc1cc(/N=C\N2CCCCC2)c(Cl)cc1Oc1nc(C(C)(C)c2ccc(Cl)cc2)ns1 [Compound 12, 2-chloro-4-({3-[2-(4-chlorophenyl)propan-2-yl]-1,2,4-thiadiazol-5-yl}oxy)-5-methyl-N-[(Z)-piperidin-1-ylmethylidene]aniline]",≥ 70,,,≥ 70
"Cc1cc(N=CN(C)C(C)C)c(Cl)cc1Oc1nc(C(C)(C)c2ccc(Cl)cc2)ns1 [Compound 13, N′-[2-chloro-4-({3-[2-(4-chlorophenyl)propan-2-yl]-1,2,4-thiadiazol-5-yl}oxy)-5-methylphenyl]-N-methyl-N-(propan-2-yl)imidoformamide]",≥ 70,≥ 70,≥ 70,≥ 70
"Cc1cc(/N=C\N2CCCCC2)c(Cl)cc1Oc1nc(/C=C/c2ccc(F)cc2)ns1 [Compound 16, 2-chloro-4-({3-[(E)-2-(4-fluorophenyl)ethenyl]-1,2,4-thiadiazol-5-yl}oxy)-5-methyl-N-[(Z)-piperidin-1-ylmethylidene]aniline]",≥ 70,,,
"CCN(C)/C=N/c1cc(C)c(Oc2nc(CCl)ns2)cc1Cl [Compound 19, N′-(2-chloro-4-{[3-(chloromethyl)-1,2,4-thiadiazol-5-yl]oxy}-5-methylphenyl)-N-ethyl-N-methylimidoformamide]",,,≥ 70,
"Cc1cc(N=CN(C)C(C)C)c(Cl)cc1Oc1nc(C2(c3ccc(Cl)cc3)CC2)ns1 [Compound 20, N′-[2-chloro-4-({3-[1-(4-chlorophenyl)cyclopropyl]-1,2,4-thiadiazol-5-yl}oxy)-5-methylphenyl]-N-methyl-N-(propan-2-yl)imidoformamide]",≥ 70,≥ 70,≥ 70,
"Cc1cc(/N=C\N2CCCCC2)c(Cl)cc1Oc1nc(C2(c3ccc(Cl)cc3)CC2)ns1 [Compound 21, 2-chloro-4-({3-[1-(4-chlorophenyl)cyclopropyl]-1,2,4-thiadiazol-5-yl}oxy)-5-methyl-N-[(Z)-piperidin-1-ylmethylidene]aniline]",≥ 70,,,
"CCN(C)/C=N/c1cc(C)c(Oc2nc(COc3ccc(Cl)cc3)ns2)cc1Cl [Compound 22, N′-[2-chloro-4-({3-[(4-chlorophenoxy)methyl]-1,2,4-thiadiazol-5-yl}oxy)-5-methylphenyl]-N-ethyl-N-methylimidoformamide]",≥ 70,,,
"C=CCN(C)C=Nc1cc(C)c(Oc2nc(C(C)(C)C)ns2)cc1Cl [Compound 25, N′-{4-[(3-(tert-butyl)-1,2,4-thiadiazol-5-yl)oxy]-2-chloro-5-methylphenyl}-N-methyl-N-(prop-2-en-1-yl)imidoformamide]",≥ 70,≥ 70,≥ 70,
"Cc1cc(N=CN(C)CC2CC2)c(Cl)cc1Oc1nc(C(C)(C)C)ns1 [Compound 26, N′-{4-[(3-(tert-butyl)-1,2,4-thiadiazol-5-yl)oxy]-2-chloro-5-methylphenyl}-N-(cyclopropylmethyl)-N-methylimidoformamide]",≥ 70,≥ 70,≥ 70,
"CCN(C)/C=N/c1cc(C)c(Oc2nc(C(C)(C)Cc3ccccc3)ns2)cc1Cl [Compound 28, N′-(2-chloro-5-methyl-4-{[3-(2-methyl-1-phenylpropan-2-yl)-1,2,4-thiadiazol-5-yl]oxy}phenyl)-N-ethyl-N-methylimidoformamide]",≥ 70,≥ 70,,≥ 70
"CCN(C)C=Nc1cc(C)c(Oc2nc(Cc3cccc(C(F)(F)F)c3)ns2)cc1Cl [Compound 34, N′-[2-chloro-5-methyl-4-({3-[3-(trifluoromethyl)benzyl]-1,2,4-thiadiazol-5-yl}oxy)phenyl]-N-ethyl-N-methylimidoformamide]",≥ 70,≥ 70,≥ 70,
"CCN(C)/C=N/c1cc(C)c(Oc2nc(COc3cccc(Cl)c3)ns2)cc1Cl [Compound 35, N′-[2-chloro-4-({3-[(3-chlorophenoxy)methyl]-1,2,4-thiadiazol-5-yl}oxy)-5-methylphenyl]-N-ethyl-N-methylimidoformamide]",≥ 70,≥ 70,≥ 70,
"CCN(C)/C=N/c1cc(C)c(Oc2nc(COc3ccccc3Cl)ns2)cc1Cl [Compound 36, N′-[2-chloro-4-({3-[(2-chlorophenoxy)methyl]-1,2,4-thiadiazol-5-yl}oxy)-5-methylphenyl]-N-ethyl-N-methylimidoformamide]",≥ 70,,≥ 70,
"CCN(C)/C=N/c1cc(C)c(Oc2nc(COc3ccccc3)ns2)cc1Cl [Compound 37, N′-(2-chloro-5-methyl-4-{[3-(phenoxymethyl)-1,2,4-thiadiazol-5-yl]oxy}phenyl)-N-ethyl-N-methylimidoformamide]",≥ 70,,,

# From US8334235B2, “Thiadiazolyloxyphenylamidines and use thereof as fungicides” (Bayer Cropscience AG, priority 2008, dated 2012)
